For 13 compounds, IC50 and melting point results are on record in article PMC6009887, “New quinoxalinone inhibitors targeting secreted phospholipase A2 and α-glucosidase” (Journal of Enzyme Inhibition and Medicinal Chemistry, 2017).

Usually IC50 stands for the concentration at which inhibition is half-maximal. In general, melting point refers to the temperature of the solid-liquid transition.

The structures appear in SMILES notation. Read-outs that look alike come from different tables or passages of the source.

In one data set the target is pG-IB sPLA2 (Sus scrofa, UniProt P00592). Briefly: Inhibition of sPLA2 activity, colorimetric lecithin/red phenol assay, group IB. In kind it is biochemical, porcine.
In a further data set the target is T1, hG-IIA sPLA2 (Homo sapiens, UniProt P14555).
T1 sequence (P14555 21-144): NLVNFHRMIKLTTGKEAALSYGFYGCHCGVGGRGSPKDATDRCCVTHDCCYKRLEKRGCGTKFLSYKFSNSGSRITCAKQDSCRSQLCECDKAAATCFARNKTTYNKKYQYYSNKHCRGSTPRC
Briefly: Inhibition of sPLA2 activity, colorimetric lecithin/red phenol assay, group IIA. The format is biochemical.

The next data set deals with T2, hG-V sPLA2 (Homo sapiens, UniProt P39877).
T2 sequence (P39877 21-138): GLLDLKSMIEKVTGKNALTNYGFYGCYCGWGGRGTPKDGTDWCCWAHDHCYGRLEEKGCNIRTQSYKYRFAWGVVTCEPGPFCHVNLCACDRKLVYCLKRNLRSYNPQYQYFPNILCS
Briefly: Inhibition of sPLA2 activity, colorimetric lecithin/red phenol assay, group V. The format is biochemical. The method, then: (§1) The test of inhibitory activity of sPLA2 was performed as described by Lobo de Araujo and Radvanyi[41]. Briefly, the substrate consisted of 3.5 mM lecithin in a mixture of 3 mM NaTDC “Sodium taurodeoxycholate”, 100 mM NaCl, 10 mM CaCl2, and 0.055 mM red phenol as colorimetric indicator in 100 ml H2O. The pH of the reaction mixture was adjusted to 7.6. The human group IB (pG-IB), IIA (hG-IIA), V (hG-V), X (hG-X), and XII (hG-XII) sPLA2 were solubilised in 10% acetonitrile at a concentration of 0.02 μg/μL. A volume of 10 μL of these PLA2 solutions was incubated with 10 μL of each compound for 20 min at room temperature. Then, 1 ml of the PLA2 substrate was added, and the kinetic of hydrolysis was followed during 5 min by reading the optical density at 558 nm. The inhibition percentage was calculated by comparison with a control experiment (absence of compound).
(§2) In order to evaluate the potential anti-inflammatory activity of the 12 studied compounds, we tested their inhibitory effects using several human sPLA2 isozymes, […], hG-V, hG-X, and hG-XII, involved in the inflammatory process and porcine pG-IB sPLA2 which hydrolyses dietary phospholipids.

The target in another data set is T3, hG-X sPLA2 (Homo sapiens, UniProt O15496).
T3 sequence (O15496 43-165): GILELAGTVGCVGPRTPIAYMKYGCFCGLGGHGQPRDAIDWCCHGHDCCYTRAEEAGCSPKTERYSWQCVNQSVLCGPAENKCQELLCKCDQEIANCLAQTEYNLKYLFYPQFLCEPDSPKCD
Briefly: Inhibition of sPLA2 activity, colorimetric lecithin/red phenol assay, group X. In kind it is biochemical. The method, then:
as §1, §2

The target of a further data set is T4, hG-XIIA sPLA2 (Homo sapiens, UniProt Q9BZM1).
T4 sequence (Q9BZM1 23-189): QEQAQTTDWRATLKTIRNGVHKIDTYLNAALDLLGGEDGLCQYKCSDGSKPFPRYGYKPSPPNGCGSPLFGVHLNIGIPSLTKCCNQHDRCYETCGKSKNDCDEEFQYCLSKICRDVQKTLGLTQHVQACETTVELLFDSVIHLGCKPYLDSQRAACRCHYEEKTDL
Briefly: Inhibition of sPLA2 activity, colorimetric lecithin/red phenol assay, group XII. In kind it is biochemical.

Setting [1] is: ± standard deviation, duplicate, read-out: IC50 (µM) Against Phospholipase pG-IB.
Where [2] appears, read: ± standard deviation, duplicate, read-out: IC50 (µM) Against Phospholipase hG-IIA.
Where [3] appears, read: ± standard deviation, duplicate, read-out: IC50 (µM) Against Phospholipase hG-V.
Setting [4] is: ± standard deviation, duplicate, read-out: IC50 (µM) Against Phospholipase hG-X.
Where [5] appears, read: ± standard deviation, duplicate, read-out: IC50 (µM) Against Phospholipase hG-XIIA.

Sequence of pG-IB sPLA2 (P00592 23-146): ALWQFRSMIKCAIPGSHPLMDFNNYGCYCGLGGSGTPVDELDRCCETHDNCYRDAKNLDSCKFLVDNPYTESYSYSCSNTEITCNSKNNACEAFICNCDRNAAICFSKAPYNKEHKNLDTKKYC
Description for hG-IIA sPLA2: (§3) Briefly, the substrate consisted of 3.5 mM lecithin in a mixture of 3 mM NaTDC “Sodium taurodeoxycholate”, 100 mM NaCl, 10 mM CaCl2, and 0.055 mM red phenol as colorimetric indicator in 100 ml H2O. The pH of the reaction mixture was adjusted to 7.6. The human group IB (pG-IB), IIA (hG-IIA), V (hG-V), X (hG-X), and XII (hG-XII) sPLA2 were solubilised in 10% acetonitrile at a concentration of 0.02 μg/μL. A volume of 10 μL of these PLA2 solutions was incubated with 10 μL of each compound for 20 min at room temperature. […] The inhibition percentage was calculated by comparison with a control experiment (absence of compound).
Description for hG-XIIA sPLA2: as §3
Description for pG-IB sPLA2: as §3

Take `O=c1[nH]c2ccccc2n2c(-c3ccc(O)cc3O)nnc12` [Compound 4c, 1-(2,4-Dihydroxyphenyl)-[1,2,4]triazolo[4,3-a]quinoxalin-4(5H)-one]: the melting point was over 300 °C. Further, the half-inhibitory concentration (IC50) on pG-IB sPLA2 (setting [1]) was found to be 14.8 ± 0.44 µM. The half-maximal inhibitory concentration (IC50) at hG-IIA sPLA2 (setting [2]) came out at 1.32 ± 0.16 µM. Besides, the IC50 at hG-V sPLA2 (setting [3]) amounted to 1.05 ± 0.13 µM. Besides, on hG-X sPLA2 (setting [4]), the IC50 amounted to 0.61 ± 0.03 µM. Further, at hG-XIIA sPLA2 (setting [5]), the half-inhibitory concentration (IC50) was determined as 0.91 ± 0.05 µM.

In the case of `O=c1[nH]c2ccccc2n2c(-c3ccc([N+](=O)[O-])cc3[N+](=O)[O-])nnc12` [Compound 4b, 1-(2,4-Dinitrophenyl)-[1,2,4]triazolo[4,3-a]quinoxalin-4(5H)-one], the melting point is over 300 °C. Also, at pG-IB sPLA2, half-maximal inhibition (IC50) required 13.6 ± 0.7 µM. Also, at hG-IIA sPLA2, the IC50 was found to be 0.76 ± 0.01 µM. On hG-V sPLA2, it took 1.53 ± 0.14 µM to reach half-maximal inhibition (IC50). This compound registered an IC50 against hG-X sPLA2 of 1.05 ± 0.08 µM. The compound further came in with an IC50 against hG-XIIA sPLA2 of 2.58 ± 0.43 µM.

For the compound `O=c1[nH]c2ccccc2n2c(-c3cccs3)nnc12` [Compound 4e, 1-(Thiophen-2-yl)-[1,2,4]triazolo[4,3-a]quinoxalin-4(5H)-one], the IC50 was determined as 16.8 ± 0.93 µM at pG-IB sPLA2 (setting [1]); 16.8 ± 0.41 µM on hG-IIA sPLA2 (setting [2]); 18.6 ± 0.56 µM on hG-V sPLA2 (setting [3]); 17.9 ± 0.94 µM on hG-X sPLA2 (setting [4]); 18.6 ± 1.33 µM on hG-XIIA sPLA2 (setting [5]).

With `O=c1[nH]c2ccccc2nc1N/N=C/c1cccs1` [Compound 3e, (E)-3-(2-(thiophen-2-ylmethylene)hydrazinyl)quinoxalin-2(1H)-one], the IC50 at pG-IB sPLA2 (setting [1]) was 10.7 ± 0.92 µM; on hG-IIA sPLA2 (setting [2]), 2.81 ± 0.33 µM; on hG-V sPLA2 (setting [3]), 6.28 ± 0.4 µM; at hG-X sPLA2 (setting [4]) it was 4.43 ± 1.03 µM; on hG-XIIA sPLA2 (setting [5]) it was 3.81 ± 0.99 µM.

In the case of `COc1cc(/C=N/Nc2nc3ccccc3[nH]c2=O)cc(OC)c1OC` [Compound 3a, (E)-3-(2-(3,4,5-trimethoxybenzylidene)hydrazinyl)quinoxalin-2(1H)-one], the melting point was 258 to 260 °C. Also, the IC50 at pG-IB sPLA2 (setting [1]) was 9.31 ± 0.36 µM. Also, the IC50 on hG-IIA sPLA2 (setting [2]) turned out to be 2.48 ± 0.28 µM. For the same compound, the concentration for half-maximal inhibition (IC50) at hG-V sPLA2 (setting [3]) amounted to 1.46 ± 0.47 µM. In addition, at hG-X sPLA2 (setting [4]), the 50% inhibitory concentration (IC50) turned out to be 1.26 ± 0.05 µM. Besides, the 50% inhibitory concentration (IC50) at hG-XIIA sPLA2 (setting [5]) turned out to be 3.04 ± 0.67 µM.

Regarding `COc1cccc(/C=N/Nc2nc3ccccc3[nH]c2=O)c1` [Compound 3f, (E)-3-(2-(3-methoxybenzylidene)hydrazinyl)quinoxalin-2(1H)-one], the IC50 worked out at 12.4 ± 0.03 µM at pG-IB sPLA2 (setting [1]); 1.9 ± 0.3 µM at hG-IIA sPLA2 (setting [2]); 1.22 ± 0.3 µM on hG-V sPLA2 (setting [3]); 0.33 ± 0.06 µM on hG-X sPLA2 (setting [4]); 0.84 ± 0.07 µM at hG-XIIA sPLA2 (setting [5]).

Compound `COc1cc(-c2nnc3c(=O)[nH]c4ccccc4n23)cc(OC)c1OC` [Compound 4a, 1-(3,4,5-Trimethoxyphenyl)-[1,2,4]triazolo[4,3-a]quinoxalin-4(5H)-one] gave a melting point of 227 to 229 °C. Further, the IC50 at pG-IB sPLA2 (setting [1]) is 14.2 ± 1.22 µM. At hG-IIA sPLA2 (setting [2]), the concentration for half-maximal inhibition (IC50) was determined as 13.05 ± 0.05 µM. For the same compound, the IC50 at hG-V sPLA2 (setting [3]) stood at 11.3 ± 0.08 µM. Besides, on hG-X sPLA2 (setting [4]), the 50% inhibitory concentration (IC50) came to 12.2 ± 0.47 µM. Besides, the half-maximal inhibitory concentration (IC50) at hG-XIIA sPLA2 (setting [5]) is 13.2 ± 0.21 µM.

`O=c1[nH]c2ccccc2nc1N/N=C/c1ccc([N+](=O)[O-])cc1[N+](=O)[O-]` [Compound 3b, (E)-3-(2-(2,4-dinitrobenzylidene)hydrazinyl)quinoxalin-2(1H)-one]: the melting point was in the range of 283 to 285 °C. Also, on pG-IB sPLA2, the half-maximal inhibitory concentration (IC50) was 10.7 ± 0.67 µM. The same compound displayed an IC50 on hG-IIA sPLA2 of 5.36 ± 0.73 µM. Also, on hG-V sPLA2, the half-inhibitory concentration (IC50) amounted to 1.12 ± 0.31 µM. For the same compound, the IC50 at hG-X sPLA2 was found to be 2.54 ± 0.42 µM. This compound came in with a 50% inhibitory concentration (IC50) on hG-XIIA sPLA2 of 2.28 ± 0.08 µM.

Regarding `O=c1[nH]c2ccccc2nc1N/N=C/c1ccc(Cl)c(Cl)c1` [Compound 3d, (E)-3-(2-(3,4-dichlorobenzylidene)hydrazinyl)quinoxalin-2(1H)-one], the melting point fell in the range of 244 to 246 °C. The IC50 at pG-IB sPLA2 (setting [1]) was 13.5 ± 1.02 µM. For the same compound, the half-maximal inhibitory concentration (IC50) at hG-IIA sPLA2 (setting [2]) is 4.5 ± 0.33 µM. For the same compound, the IC50 on hG-V sPLA2 (setting [3]) was 5.7 ± 0.27 µM. For the same compound, the IC50 on hG-X sPLA2 (setting [4]) is 3 ± 0.63 µM. Further, the 50% inhibitory concentration (IC50) on hG-XIIA sPLA2 (setting [5]) was found to be 10.5 ± 1.74 µM.

Take `O=c1[nH]c2ccccc2n2c(-c3ccc(Cl)c(Cl)c3)nnc12` [Compound 4d, 1-(3,4-Dichlorophenyl)-[1,2,4]triazolo[4,3-a]quinoxalin-4(5H)-one]: the IC50 on pG-IB sPLA2 (setting [1]) was determined as 14.5 ± 0.87 µM; at hG-IIA sPLA2 (setting [2]), 1.81 ± 0.04 µM; on hG-V sPLA2 (setting [3]) it was 3.04 ± 0.57 µM; at hG-X sPLA2 (setting [4]), 2.71 ± 0.07 µM; on hG-XIIA sPLA2 (setting [5]) it was 1.41 ± 0.07 µM.

Take `CC1(C)CC[C@]2(C(=O)O)CC[C@]3(C)C(=CC[C@@H]4[C@@]5(C)CC[C@H](O)C(C)(C)[C@@H]5CC[C@]43C)[C@@H]2C1` [Oleanolic acid, reference compound]: the IC50 on hG-V sPLA2 (setting [3]) came out at 16.4 ± 1.53 µM.

With `COc1cccc(-c2nnc3c(=O)[nH]c4ccccc4n23)c1` [Compound 4f, 1-(3-Methoxyphenyl)-[1,2,4]triazolo[4,3-a]quinoxalin-4(5H)-one], the melting point was in the range of 286 to 288 °C. At pG-IB sPLA2 (setting [1]), the concentration for half-maximal inhibition (IC50) turned out to be 16 ± 1.71 µM. For the same compound, the IC50 on hG-IIA sPLA2 (setting [2]) worked out at 17.1 ± 0.41 µM. Further, the half-inhibitory concentration (IC50) on hG-V sPLA2 (setting [3]) came out at 15.8 ± 0.85 µM. Further, the IC50 on hG-X sPLA2 (setting [4]) came to 14.4 ± 0.52 µM. Besides, the IC50 at hG-XIIA sPLA2 (setting [5]) is 15.8 ± 1.29 µM.

On to `O=c1[nH]c2ccccc2nc1N/N=C/c1ccc(O)cc1O` [Compound 3c, (E)-3-(2-(2,4-dihydroxybenzylidene)hydrazinyl)quinoxalin-2(1H)-one], for which the melting point was in the range of 292 to 294 °C. For the same compound, the half-maximal inhibitory concentration (IC50) at pG-IB sPLA2 (setting [1]) is 13.3 ± 0.5 µM. For the same compound, the IC50 at hG-IIA sPLA2 (setting [2]) worked out at 3.71 ± 0.27 µM. Besides, the half-maximal inhibitory concentration (IC50) on hG-V sPLA2 (setting [3]) was determined as 9.45 ± 0.13 µM. For the same compound, the half-maximal inhibitory concentration (IC50) on hG-X sPLA2 (setting [4]) worked out at 12.5 ± 0.87 µM. Besides, on hG-XIIA sPLA2 (setting [5]), the IC50 was 6.75 ± 0.17 µM.
